Experimental data from patent US20230331803A1, “CO-AGONISTS OF THE GLP-1 AND AMYLIN RECEPTORS” (priority 2020, published 2023).
Like-named read-outs stand apart in the source and are kept apart here. Starred links: 1 amine or outer side, 2 acyl side, 3 side chain; linkers in the order of their positions; H or OH if unused. Non-standard residues stand in square brackets, D forms with d. Groups on a side chain read outwards from the residue. *: point of attachment. C20 diacid = O=C(O)CCCCCCCCCCCCCCCCCCC(=O)*; C18 diacid = O=C(O)CCCCCCCCCCCCCCCCC(=O)*; C16 diacid = O=C(O)CCCCCCCCCCCCCCC(=O)*; γGlu = O=C(O)[C@H](CCC(=O)[*:2])N[*:1]; εLys = N[C@@H](CCCCN[*:1])C(=O)[*:2]; Trx = NC[C@H]1CC[C@H](C(=O)O)CC1; AEEA = NCCOCCOCC(=O)O; Aib = CC(C)(N)C(=O)O

B1: H-Aib-EGTFTSDVSSYLEGQAA-K([2-[2-[2-[[2-[2-[2-[[(4S)-4-Carboxy-4-(17-Carboxyheptadecanoylamino)Butanoyl]Amino]Ethoxy]Ethoxy]Acetyl]Amino]Ethoxy]Ethoxy]Acetyl])-EFIAWLVRGRGGQEPGQEP-K([2-[2-[2-[[2-[2-[2- … (peptide)
peptide: H[Aib]EGTFTSDVSSYLEGQAAK([AEEA-AEEA-γGlu-C18 diacid])EFIAWLVRGRGGQEPGQEPK([AEEA-AEEA-γGlu-C18 diacid])CNTATCATQRLAEFLRHSSNNFGPILPPTNVGSNTP-NH2
modifications: ends and bridges not checked

Assays:
[1] = target: T1, human GLP-1 receptor (Homo sapiens, UniProt P43220); assay: Human GLP-1 receptor in vitro potency assay (CRE-luciferase reporter, BHK cells); format: cell-based; conditions: for Ability to agonise the GLP-1 receptor, in words: Tables 4a-4c
T1 construct: expressed in transfected cells; host or cells: BHK (Baby Hamster Kidney) cells, clone BHK 467-12A KZ-10, stably transfected, with CRE-luciferase reporter
Method: It is thus possible to measure GLP-1 receptor activity using a CRE-luciferase reporter gene introduced into Baby Hamster Kidney (BHK) cells co-expressing the GLP-1 receptor.
Cells were aliquoted and stored at -180° C. until use.
Plates were sealed and incubated at room temperature with gentle shaking for 30 minutes while protected from light. Luminescence was detected on a luminescence plate reader e.g. a Synergy 2 (BioTek).

[2] = system: Sprague Dawley (SD) rats; assay: Acute food intake in ad libitum fed rats after a single subcutaneous administration; format: in vivo, rat; conditions: for Food intake relative to vehicle (%) 0-24 hr, 10 nmol/kg / Food intake relative to vehicle (%) 24-48 hr, 10 nmol/kg: rat, single administration;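 for all read-outs here: food intake monitored in the HM2 system, three rats per cage kept on a reversed light cycle, with food and water freely available after the subcutaneous dose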
From the text: Sprague Dawley (SD) rats from Taconic Europe, Denmark were used for the acute food intake experiments, wherein the principles of laboratory animal care were followed.
The rats arrived at least 10-14 days before the start of the experiment to allow acclimatisation to experimental settings. During this period, the animals were handled at least 2 times. Immediately upon arrival, rats were put on a reversed light cycle (dark from 11am - 11pm) and put in the HM2 system and ID chipped. Three rats were housed in each cage. […] The rats were dosed once according to body weight with a 0.01-3 mg/kg solution administered subcutaneously (sc). The time of dosing was recorded for each group.
After dosing, the rats were returned to their home cages, where they had access to food and water. […] At the end of the experimental session, the animals were euthanised.

[3] = target: T2, human amylin receptor (hAmyR3) (Homo sapiens, UniProt O60896+P30988); assay: Human amylin receptor in vitro potency assay (CRE-luciferase reporter, BHK cells); format: cell-based; conditions: for Ability to agonise the amylin receptor, in words: Tables 4a-4c;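 for all read-outs here: BHK cells expressing human calcitonin receptor plus RAMP3 (amylin-3 receptor) with a CRE-luciferase reporter, agonist activity read as luminescence from cAMP-driven transcription, 7-point serial dilutions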
T2 construct: host or cells: BHK cells (Hollex-1 line: human calcitonin receptor (a) + CRE-Luc), further transfected with human RAMP3

[4] = Pharmacokinetic studies in Beagle dogs after oral administration of SNAC-based tablets; format: in vivo; conditions: for Tmax / half-life / T½: male, Beagle
Procedure, shortened: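 Fasted male Beagle dogs received immediate-release oral tablets containing 3–4 mg test substance with 100–300 mg SNAC, optionally after ~3 nmol/kg s.c. SEQ ID NO: 237 10 min before. EDTA plasma sampled up to 240 h; LCMS concentrations analysed non-compartmentally.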

[5] = endogenous hormone; cited from earlier work
[6] = measured in humans (Meier et al., Diabetes, 2004); cited from earlier work
[7] = target: T3, human amylin receptor (hAmyR3) (Homo sapiens, UniProt O60896+P30988); assay: Human amylin receptor in vitro potency assay (CRE-luciferase reporter, BHK cells); format: cell-based; conditions: Tables 4a-4c;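 note: BHK cells expressing human calcitonin receptor plus RAMP3 (amylin-3 receptor) with a CRE-luciferase reporter, agonist activity read as luminescence from cAMP-driven transcription, 7-point serial dilutions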
T3 construct: host or cells: BHK cells (Hollex-1 line: human calcitonin receptor (a) + CRE-Luc), further transfected with human RAMP3
T3 sequence (O60896 whole entry, looked up): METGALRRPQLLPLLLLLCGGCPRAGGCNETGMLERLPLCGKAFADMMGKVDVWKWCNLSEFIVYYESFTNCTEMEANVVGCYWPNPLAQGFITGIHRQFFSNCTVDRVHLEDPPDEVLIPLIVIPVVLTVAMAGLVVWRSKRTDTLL
T3 sequence (P30988 whole entry, looked up): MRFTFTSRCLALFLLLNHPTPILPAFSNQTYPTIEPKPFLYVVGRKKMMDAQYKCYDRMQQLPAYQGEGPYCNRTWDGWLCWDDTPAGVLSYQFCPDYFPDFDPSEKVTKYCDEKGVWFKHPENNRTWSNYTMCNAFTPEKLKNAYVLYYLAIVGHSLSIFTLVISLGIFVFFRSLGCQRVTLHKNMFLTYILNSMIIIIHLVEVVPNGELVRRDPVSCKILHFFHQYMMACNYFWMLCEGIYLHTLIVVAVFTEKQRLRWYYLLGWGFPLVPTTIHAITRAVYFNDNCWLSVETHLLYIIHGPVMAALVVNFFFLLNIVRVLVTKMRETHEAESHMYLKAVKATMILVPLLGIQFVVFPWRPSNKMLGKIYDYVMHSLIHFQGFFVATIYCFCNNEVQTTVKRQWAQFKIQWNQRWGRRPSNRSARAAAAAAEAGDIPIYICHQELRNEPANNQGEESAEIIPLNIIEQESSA

[8] = dogs, oral administration (tablet)
[9] = Table 4a, BHK cells expressing human GLP-1R, CRE-Luc, 3 hours, read-out: Human GLP-1R potency [EC50 (pM)]
[10] = Table 4a, BHK hAmyR3/CRE-Luc cells, 3 hours, read-out: Human AmyR3 potency [EC50 (pM)]

T1 sequence (P43220 24-463): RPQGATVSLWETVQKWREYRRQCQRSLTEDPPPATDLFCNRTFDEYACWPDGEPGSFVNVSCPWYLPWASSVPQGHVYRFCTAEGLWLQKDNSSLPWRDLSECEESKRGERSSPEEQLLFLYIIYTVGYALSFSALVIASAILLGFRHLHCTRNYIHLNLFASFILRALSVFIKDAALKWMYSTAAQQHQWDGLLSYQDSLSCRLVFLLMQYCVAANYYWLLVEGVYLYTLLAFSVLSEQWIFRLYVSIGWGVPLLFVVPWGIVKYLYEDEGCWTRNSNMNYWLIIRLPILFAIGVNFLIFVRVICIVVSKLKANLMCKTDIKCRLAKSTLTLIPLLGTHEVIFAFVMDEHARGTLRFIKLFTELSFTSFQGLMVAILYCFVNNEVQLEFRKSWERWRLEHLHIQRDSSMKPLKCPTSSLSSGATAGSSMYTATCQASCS

| Molecule | Food intake relative to vehicle (%) 0-24 hr, 10 nmol/kg ([2]; Table 6a) | Food intake relative to vehicle (%) 24-48 hr, 10 nmol/kg ([2]; Table 6a) | EC50 [1, 9] | EC50 [3, 10] | T½ ([4]; dog, in vivo, po) | Tmax ([4]; dog, in vivo, po, Tmax (hr)) | half-life ([4]; dog, in vivo, po, T½ (hr)) | AUC/D ([4]; dog, in vivo, po) | Cmax/D ([4]; dog, in vivo, po) | further results |
| --- | --- | --- | --- | --- | --- | --- | --- | --- | --- | --- |
| CC[C@H](C)[C@H](NC(=O)[C@H](Cc1ccccc1)NC(=O)[C@H](CCC(=O)O)NC(=O)[C@H](CCCNC(=N)N)NC(=O)[C@H](C)NC(=O)[C@H](C)NC(=O)[C@H](CCC(N)=O)NC(=O)[C@H](CCC(=O)O)NC(=O)[C@H](CCC(=O)O)NC(=O)[C@H](CC(C)C)NC(=O)[C@H](Cc1ccc(O)cc1)NC(=O)[C@H](CO)NC(=O)[C@H](CO)NC(=O)[C@H](CCCCNC(=O)COCCOCCNC(=O)COCCOCCNC(=O)CC[C@H](NC(=O)[C@H]1CC[C@H](CNC(=O)CCCCCCCCCCCCCCCCCCC(=O)O)CC1)C(=O)O)NC(=O)[C@H](CC(=O)O)NC(=O)[C@H](CO)NC(=O)[C@@H](NC(=O)[C@H](Cc1ccccc1)NC(=O)[C@@H](NC(=O)CNC(=O)[C@H](CCC(=O)O)NC(=O)C(C)(C)NC(=O)[C@@H](N)Cc1c[nH]cn1)[C@@H](C)O)[C@@H](C)O)C(=O)N[C@@H](CCC(=O)O)C(=O)N[C@@H](Cc1c[nH]c2ccccc12)C(=O)N[C@@H](CC(C)C)C(=O)N[C@H](C(=O)N[C@@H](CCCNC(=N)N)C(=O)NCC(=O)N[C@@H](CCCNC(=N)N)C(=O)NCC(=O)N[C@@H](CCC(=O)O)C(=O)N[C@@H](C)C(=O)N[C@@H](CO)C(=O)N[C@@H](CCC(=O)O)C(=O)N[C@@H](CC(C)C)C(=O)N[C@@H](CO)C(=O)N[C@H](C(=O)N[C@@H](C)C(=O)N[C@@H](C)C(=O)N[C@@H](CC(C)C)C(=O)NCC(=O)N[C@@H](CCCNC(=N)N)C(=O)N[C@@H](CC(C)C)C(=O)N[C@@H](CO)C(=O)N[C@@H](C)C(=O)N[C@@H](CCC(=O)O)C(=O)N[C@@H](CC(C)C)C(=O)N[C@@H](Cc1c[nH]cn1)C(=O)N[C@@H](CCC(=O)O)C(=O)N[C@@H](CC(C)C)C(=O)N[C@@H](C)C(=O)N[C@H](C(=O)N[C@@H](CC(C)C)C(=O)N1CCC[C@H]1C(=O)N[C@@H](CCCNC(=N)N)C(=O)N[C@H](C(=O)N[C@@H](CCC(=O)O)C(=O)N[C@H](C(=O)NCC(=O)N[C@@H](CO)C(=O)NCC(=O)N[C@@H](CO)C(=O)N1CCC[C@H]1C(N)=O)[C@@H](C)O)[C@@H](C)O)[C@@H](C)O)[C@@H](C)O)C(C)C [Compound 0440] | 81% | 77% | – | – | – | – | – | – | – | EC50 [1]: 5.7 pM; EC50 [3]: 10.4 pM; AUC/D [4, 8]: 5.78 kg·h/L; Cmax/D [4, 8]: 0.29 kg/L; Tmax ([4]; dog, in vivo, dogs, oral administration (tablet), read-out: Tmax): 1.8 h; half-life ([4]; dog, in vivo, dogs, oral administration (tablet), read-out: T½ (converted)): 32 h |
| H-H[Aib]EGTFTSDVSK([AEEA-AEEA-γGlu-C16 diacid])YLEEQAARK([AEEA-AEEA-γGlu-C16 diacid])FIAWLVRGRGGGGGEASELSTAALGRLSAELHELATLPRTETGSGSP-NH2 [Compound 0516] | 87% | 82% | 3.3 pM | 8.9 pM | 103 h | 2 h | 99 h | – | – | – |
| H-H[Aib]EGTFTSDVSSYLEEQAAREFIAWLVRGRK([εLys-AEEA-AEEA-γGlu-C20 diacid])GGGGEASELSTAALGRLSAELHELATLPRTETGSGSP-NH2 [Compound 0552] | 56% | 55% | 4.7 pM | 6.9 pM | – | 1 h | 52 h | 8.58 kg·h/L | 0.22 kg/L | – |
| H-H[Aib]EGTFTSDVSSYLEEQAAREFIAWLVRGRK([AEEA-AEEA-γGlu-C18 diacid])GGGGEASELSTAALGRLSAELHELATLPRTETGSGSP-NH2 [Compound 0111] | 28% | 75% | 3 pM | 11.5 pM | 42 h | 1.5 h | 44 h | – | – | Ability to agonise the GLP-1 receptor, in words [1]: retained full potency on both receptors; Ability to agonise the amylin receptor, in words [3]: retained full potency on both receptors; Tmax ([4]; dog, in vivo, po): 2.0 h |
| H-H[Aib]EGTFTSDVSSYLEGQAAKEFIAWLVRGRK([εLys-AEEA-AEEA-γGlu-C18 diacid])GGEASELSTAALGRLSAELHELATLPRTETGSGSP-NH2 [Compound 0045] | 46% | 80% | 19.4 pM | 25.9 pM | – | 1.3 h | 41 h | 10.90 kg·h/L | 0.27 kg/L | – |
| H-H[Aib]EGTFTSDVSK([AEEA-AEEA-γGlu-C18 diacid])YLEEQAAREFIAWLVRGRGGGGGEASELSTAALGRLSAELHELATLPRTETGSGSP-NH2 [Compound 0640] | 28% | 66% | 2.3 pM | 6 pM | – | 1.5 h | 29 h | 7.57 kg·h/L | 0.37 kg/L | – |
| human amylin (KCNTATCATQRLANFLVHSSNNFGAILSSTNVGSNTY; Islet amyloid polypeptide; UniProt P10997 34-70, looked up) [37-amino acid long polypeptide hormone co-secreted with insulin from the pancreatic beta-cell] | – | – | – | – | – | – | – | – | – | half-life [5]: 0.25 to 0.333 h; half-life [6]: 0.25 to 0.333 h |
| H-H[Aib]EGTFTSDVSSYLEEQAAREFIAWLVRGRK([AEEA-AEEA-γGlu-Trx-C20 diacid])GGGGEASELSTAALGRLSAELHELATLPRTETGSGSP-NH2 [Compound 0120] | 53% | 55% | 9.1 pM | 10.6 pM | 22 h | – | 24 h | – | – | Ability to agonise the GLP-1 receptor, in words [1]: fully potent on both receptors; Food intake relative to vehicle (%) 0-24 hr, 10 nmol/kg ([2]; Table 6b): 53%; Food intake relative to vehicle (%) 24-48 hr, 10 nmol/kg ([2]; Table 6b): 55%; Inhibition of food intake, in words ([2]; rats, 10 nmol/kg): significant inhibition of food intake within the first 48 hours; Ability to agonise the amylin receptor, in words [3]: fully potent on both receptors |
| H-H[Aib]EGTFTSDVSSYLEGQAAREFIAWLVRGRGQEPK([AEEA-AEEA-γGlu-C18 diacid])GQAPEASELSTAALGRLSAELHELATLPRTETGSGSP-NH2 [Compound 0084] | 44% | 50% | 2.5 pM | 14 pM | – | 1.5 h | 47 h | 15.16 kg·h/L | 0.36 kg/L | – |
| B1 | – | – | – | – | – | – | – | – | – | Ability to agonise the amylin receptor, in words [7]: do not activate the amylin receptor |
